Experimental data published in patent publication US7041785B1, “B1-bradykinin receptor antagonists and use thereof” (Université de Sherbrooke, priority 1996, dated 2006).
Like-named read-outs stand apart in the source and are kept apart here. Non-standard residues stand in square brackets, D forms with d. Residues, ends and D or L forms follow the SMILES beside them. Tyr(3,5-I2) = N[C@@H](Cc1cc(I)c(O)c(I)c1)C(=O)O; Oic = O=C(O)[C@@H]1C[C@@H]2CCCC[C@@H]2N1; 2Nal = N[C@@H](Cc1ccc2ccccc2c1)C(=O)O; d2Nal = N[C@H](Cc1ccc2ccccc2c1)C(=O)O; Hyp = O=C(O)[C@@H]1C[C@@H](O)CN1; Tic = O=C(O)[C@@H]1Cc2ccccc2CN1; dTic = O=C(O)[C@H]1Cc2ccccc2CN1; 2Thi = N[C@@H](Cc1cccs1)C(=O)O; Ahx = NCCCCCC(=O)O; Sar = CNCC(=O)O

Key:
human B1 receptor = target: T1, human B1 receptor (Homo sapiens, UniProt P46663); test: cell-based; conditions: for Human umbilical vein B1 receptor α^E: residual agonistic activity at 10 μg/mL
T1 sequence (P46663 1-353): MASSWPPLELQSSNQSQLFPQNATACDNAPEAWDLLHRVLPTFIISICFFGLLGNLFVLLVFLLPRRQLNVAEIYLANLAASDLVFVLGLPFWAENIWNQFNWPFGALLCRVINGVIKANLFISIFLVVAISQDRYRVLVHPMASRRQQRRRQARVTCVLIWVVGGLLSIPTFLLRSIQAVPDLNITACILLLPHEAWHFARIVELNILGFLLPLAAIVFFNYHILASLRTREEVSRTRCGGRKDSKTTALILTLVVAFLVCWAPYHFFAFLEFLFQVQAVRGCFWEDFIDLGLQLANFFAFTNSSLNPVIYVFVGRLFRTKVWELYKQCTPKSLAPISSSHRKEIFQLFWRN
In short: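 Isolated rabbit jugular vein (captopril 1 μmol/L), guinea pig ileum, endothelium-free rabbit aorta and human umbilical vein, in Krebs at 37 °C, with isometric tension recorded. Agonism was tested at 10 μg/mL.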

B2 receptor = target: T2, B2 receptor (Oryctolagus cuniculus, UniProt Q28642); conditions: vs BK; captopril 1 μmol/L; Inactive = no detectable antagonistic effect at ≦ 10 μg/ml
T2 sequence (Q28642 1-367): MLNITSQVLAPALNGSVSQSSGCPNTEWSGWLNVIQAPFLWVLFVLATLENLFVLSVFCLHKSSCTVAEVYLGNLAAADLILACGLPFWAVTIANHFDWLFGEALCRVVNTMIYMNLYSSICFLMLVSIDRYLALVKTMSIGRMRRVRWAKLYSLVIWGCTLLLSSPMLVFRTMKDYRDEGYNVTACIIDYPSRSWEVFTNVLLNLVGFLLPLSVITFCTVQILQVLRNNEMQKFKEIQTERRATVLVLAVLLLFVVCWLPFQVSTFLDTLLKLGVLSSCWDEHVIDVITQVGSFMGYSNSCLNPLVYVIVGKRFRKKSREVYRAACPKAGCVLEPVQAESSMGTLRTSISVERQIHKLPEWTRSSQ

[1] = Human umbilical vein B1 receptor pA2, vs desArg9BK, HOE140 400 nmol/L present

## CC(C)C[C@H](NC(=O)[C@H]1Cc2ccccc2CN1C(=O)[C@H](CO)NC(=O)[C@H](Cc1ccccc1)NC(=O)CNC(=O)[C@@H]1CCCN1C(=O)[C@@H]1CCCN1C(=O)[C@@H](N)CCCNC(=N)N)C(=O)O [Compound 8, (D-Tic^7, Leu^8)desArg^9BK] (H-RPPGFS[dTic]L-OH; N-terminus and C-terminus assumed)
Human B1 receptor; [1]
  Kb: 2750 nM
B2 receptor
  Rb.J.V. pA2: Inactive

## CNCC(=O)N[C@@H](CCCNC(=N)N)C(=O)N1CCC[C@H]1C(=O)N1CCC[C@H]1C(=O)NCC(=O)N[C@@H](Cc1ccccc1)C(=O)N[C@@H](CO)C(=O)N1Cc2ccccc2C[C@@H]1C(=O)N[C@@H](CC(C)C)C(=O)O [Compound 9, Sar(D-Tic^7, Leu^8)desArg^9BK] (H-[Sar]RPPGFS[dTic]L-OH; N-terminus and C-terminus assumed)
B2 receptor
  Rb.J.V. pA2: Inactive

## CC[C@H](C)[C@H](NC(=O)[C@H]1Cc2ccccc2CN1C(=O)[C@H](CO)NC(=O)[C@H](Cc1ccccc1)NC(=O)CNC(=O)[C@@H]1CCCN1C(=O)[C@@H]1CCCN1C(=O)[C@H](CCCNC(=N)N)NC(=O)[C@H](N)CCCNC(=N)N)C(=O)O [Compound 13, D-Arg(D-Tic^7, Ile^8)desArg^9BK] (H-[dR]RPPGFS[dTic]I-OH; N-terminus and C-terminus assumed)
Human B1 receptor; [1]
  Kb: 22.9 nM

## CC[C@H](C)[C@H](NC(=O)[C@@H]1Cc2ccccc2CN1C(=O)[C@H](CO)NC(=O)[C@H](Cc1ccccc1)NC(=O)CNC(=O)[C@@H]1CCCN1C(=O)[C@@H]1CCCN1C(=O)[C@H](CCCNC(=N)N)NC(=O)[C@H](N)CCCNC(=N)N)C(=O)O [Compound 14, D-Arg(L-Tic^7, Ile^8)desArg^9BK] (H-[dR]RPPGFS[Tic]I-OH; N-terminus and C-terminus assumed)
Human B1 receptor; [1]
  Kb: 4680 nM

## CC(=O)N[C@@H](CCCCN)C(=O)N[C@@H](CCCNC(=N)N)C(=O)N1CCC[C@H]1C(=O)N1CCC[C@H]1C(=O)NCC(=O)N[C@@H](Cc1ccccc1)C(=O)N[C@@H](CO)C(=O)N[C@H](Cc1ccc2ccccc2c1)C(=O)N[C@@H](CC(C)C)C(=O)O [Compound 18, AcLys(D-βNal^7, Leu^8)desArg^9BK] (Ac-KRPPGFS[d2Nal]L-OH; C-terminus assumed)
Human B1 receptor; [1]
  Kb: 35.5 nM
Human B1 receptor
  Human umbilical vein B1 receptor α^E: 0

## CC[C@H](C)[C@H](NC(=O)[C@@H](Cc1ccc2ccccc2c1)NC(=O)[C@H](CO)NC(=O)[C@H](Cc1ccccc1)NC(=O)CNC(=O)[C@@H]1CCCN1C(=O)[C@@H]1CCCN1C(=O)[C@H](CCCN=C(N)N)NC(=O)[C@H](CCCCN)NC(C)=O)C(=O)O [Compound 19, AcLys(D-βNal^7, Ile^8)desArg^9BK] (Ac-KRPPGFS[d2Nal]I-OH)
Human B1 receptor
  Kb: 3.16 nM

## CC[C@H](C)[C@H](NC(=O)[C@H](Cc1ccc2ccccc2c1)NC(=O)[C@H](CO)NC(=O)[C@H](Cc1ccccc1)NC(=O)CNC(=O)[C@@H]1CCCN1C(=O)[C@@H]1CCCN1C(=O)[C@H](CCCNC(=N)N)NC(=O)[C@H](CCCCN)NC(C)=O)C(=O)O [Compound 20, AcLys(L-βNal^7, Ile^8)desArg^9BK] (Ac-KRPPGFS[2Nal]I-OH; C-terminus assumed)
Human B1 receptor; [1]
  Kb: 6920 nM
Human B1 receptor
  Human umbilical vein B1 receptor α^E: 0

## CC(C)C[C@H](NC(=O)[C@@H](Cc1ccc2ccccc2c1)NC(=O)[C@H](CO)NC(=O)[C@H](Cc1ccccc1)NC(=O)CNC(=O)[C@@H]1CCCN1C(=O)[C@@H]1CCCN1C(=O)[C@H](CCCNC(=N)N)NC(=O)[C@H](N)CCCNC(=N)N)C(=O)O [Compound 24, D-Arg(D-βNal^7, Leu^8)desArg^9BK] (H-[dR]RPPGFS[d2Nal]L-OH; N-terminus and C-terminus assumed)
Human B1 receptor; [1]
  Kb: 50.1 nM

## CC[C@H](C)[C@H](NC(=O)[C@@H](Cc1ccc2ccccc2c1)NC(=O)[C@H](CO)NC(=O)[C@H](Cc1ccccc1)NC(=O)CNC(=O)[C@@H]1CCCN1C(=O)[C@@H]1CCCN1C(=O)[C@H](CCCNC(=N)N)NC(=O)CNC)C(=O)O [Compound 26, Sar(D-βNal^7, Ile^8)desArg^9BK] (H-[Sar]RPPGFS[d2Nal]I-OH; N-terminus and C-terminus assumed)
Human B1 receptor; [1]
  Kb: 47.9 nM

## CC(=O)N[C@@H](Cc1ccc(O)cc1)C(=O)NCCCCCC(=O)N[C@@H](CCCCN)C(=O)N[C@@H](CCCNC(=N)N)C(=O)N1CCC[C@H]1C(=O)N1CCC[C@H]1C(=O)NCC(=O)N[C@@H](Cc1ccccc1)C(=O)N[C@@H](CO)C(=O)N1CCC[C@H]1C(=O)N[C@@H](CC(C)C)C(=O)O [Compound 27, AcTyrεAhxLys(Leu^8)desArg^9BK]
B2 receptor
  Rb.J.V. pA2: Inactive

## CNCC(=O)N[C@@H](Cc1ccc(O)cc1)C(=O)NCCCCCC(=O)N[C@@H](CCCCN)C(=O)N[C@@H](CCCNC(=N)N)C(=O)N1CCC[C@H]1C(=O)N1CCC[C@H]1C(=O)NCC(=O)N[C@@H](Cc1ccccc1)C(=O)N[C@@H](CO)C(=O)N1CCC[C@H]1C(=O)N[C@@H](CC(C)C)C(=O)O [Compound 28, SarTyrεAhxLys(Leu^8)desArg^9BK]
B2 receptor
  Rb.J.V. pA2: Inactive

## CC[C@H](C)[C@H](NC(=O)[C@@H](Cc1ccc2ccccc2c1)NC(=O)[C@H](CO)NC(=O)[C@H](Cc1ccccc1)NC(=O)CNC(=O)[C@@H]1CCCN1C(=O)[C@@H]1CCCN1C(=O)[C@H](CCCNC(=N)N)NC(=O)[C@H](CCCCN)NC(=O)CCCCCNC(=O)[C@H](Cc1ccc(O)cc1)NC(=O)CNC)C(=O)O [Compound 29, SarTyrεAhxLys(D-βNal^7, Ile^8)desArg^9BK] (H-[Sar]Y[Ahx]KRPPGFS[d2Nal]I-OH; N-terminus and C-terminus assumed)
Human B1 receptor; [1]
  Kb: 4.07 nM

## CC[C@H](C)[C@H](NC(=O)[C@@H](Cc1ccc2ccccc2c1)NC(=O)[C@H](CO)NC(=O)[C@H](Cc1ccccc1)NC(=O)CNC(=O)[C@@H]1CCCN1C(=O)[C@@H]1CCCN1C(=O)[C@H](CCCNC(=N)N)NC(=O)[C@H](CCCCN)NC(=O)CCCCCNC(=O)[C@H](Cc1cc(I)c(O)c(I)c1)NC(=O)CNC)C(=O)O [Compound 30, SarTyr(3,5-I)εAhxLys(D-βNal^7, Ile^8)desArg^9BK] (H-[Sar][Tyr(3,5-I2)][Ahx]KRPPGFS[d2Nal]I-OH; N-terminus and C-terminus assumed)
Human B1 receptor; [1]
  Kb: 4.79 nM

## N=C(N)NCCC[C@@H](N)C(=O)N[C@@H](CCCNC(=N)N)C(=O)N1CCC[C@H]1C(=O)N1C[C@H](O)C[C@H]1C(=O)NCC(=O)N[C@@H](Cc1cccs1)C(=O)N[C@@H](CO)C(=O)N1Cc2ccccc2C[C@@H]1C(=O)N1[C@H](C(=O)O)C[C@@H]2CCCC[C@@H]21 [Compound 31, D-Arg(Hyp^3, Thi^5, D-Tic^7, Oic^8)desArg^9BK, reference compound] (H-[dR]RP[Hyp]G[2Thi]S[dTic][Oic]-OH; N-terminus and C-terminus assumed)
Human B1 receptor; [1]
  Kb: 51.3 nM
Human B1 receptor; vs desArg9BK, HOE140 400 nmol/L present
  Human umbilical vein B1 receptor pA2: 7.29
